According to patent US9763445B2, “Safened herbicidal compositions comprising a pyridine carboxylic acid herbicide” (Dow AgroSciences, LLC, priority 2014, dated 2017):

Legend:
lambsquarters (CHEAL) = test: Postemergence greenhouse trial, % visual injury on lambsquarters; format: in vivo, Chenopodium album; details: for % visual injury, observed (Ob): CHEAL
Summary of the method: (§1)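 Visual injury, 0 (none) to 100 (complete kill), rated 20-22 d after overhead track-sprayer application at 187 L/ha; Colby's equation gave expected mixture responses. Herbicide (g ae/ha) and cloquintocet-mexyl safener (g ai/ha) diluted in aqueous 1.5% v/v Agri-dex, applied to weeds at 2–3 true leaves.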

thistle (CIRAR) = test: Postemergence greenhouse trial, % visual injury on thistle; format: in vivo, Cirsium arvense; details: for % visual injury, Ob: CIRAR
Summary of the method: as §1

wild chamomile (MATCH) = test: Postemergence greenhouse trial, % visual injury on wild chamomile; format: in vivo, Matricaria chamomilla
Method: Seeds of the desired test plant species were planted in Sun Gro MetroMix® 306 planting mixture, which typically has a pH of 6.0 to 6.8 and an organic matter content of about 30 percent, in plastic pots with a surface area of 103.2 square centimeters (cm^2). When required to ensure good germination and healthy plants, a fungicide treatment and/or other chemical or physical treatment was applied. The plants were grown for 7-36 days (d) in a greenhouse with an approximate 14-hour (h) photoperiod which was maintained at about 23° C. during the day and 22° C. during the night. Nutrients and water were added on a regular basis and supplemental lighting was provided with overhead metal halide 1000-Watt lamps as necessary. The plants were employed for testing when they reached the second or third true leaf stage.
Weighed amounts of technical material were dissolved in a volume of 97:3 volume per volume (v/v) acetone/dimethyl sulfoxide (DMSO) to stock solutions. […] The concentrated stock solutions were diluted with an aqueous mixture of 1.5% v/v of Agri-dex crop oil concentrate to provide the appropriate application rates. Compound requirements are based upon a 12 milliliter (mL) application volume at a rate of 187 liters per hectare (L/ha). Stocks solutions of the safeners were prepared following the same procedure. Spray solutions of the safeners and experimental compound mixtures were prepared by adding the stock solutions to the appropriate amount of dilution solution to form a 12 mL spray solution in two-way combinations. Formulated compounds were applied to the plant material with an overhead Mandel track sprayer equipped with 8002E nozzles calibrated to deliver 187 L/ha over an application area of 0.503 square meters (m^2) at a spray height of 18 inches (43 centimeters (cm)) above average plant canopy. Control plants were sprayed in the same manner with the solvent blank. All herbicide application (component a) rates are in g ae/ha and all safener (component b) rates are in g ai/ha.
The treated plants and control plants were placed in a greenhouse as described above and watered by sub-irrigation to prevent wash-off of the test compounds. After 20-22 d, the condition of the test plants as compared with that of the control plants was determined visually and scored on a scale of 0 to 100 percent where 0 corresponds to no injury and 100 corresponds to complete kill. […] Colby's equation was used to determine the herbicidal effects expected from the mixtures. […]

common poppy (PAPRH) = test: Postemergence greenhouse trial, % visual injury on common poppy; format: in vivo, Papaver rhoeas; details: for % visual injury, Ob / % visual injury, observed (Ob): PAPRH
Summary of the method: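 Herbicide rates g ae/ha, safener (cloquintocet-mexyl) rates g ai/ha; spray carrier 1.5% v/v crop oil concentrate, 187 L/ha, 2nd–3rd leaf stage. Rating: visual % injury at 20-22 d.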

[1] = compound 8 0 + CQC-m 4.375 g/ha

CCCCCC(C)OC(=O)COc1ccc(Cl)c2cccnc12 (stereo not shown) [CQC-m, cloquintocet-mexyl, reference compound]
0%: % visual injury, observed (Ob) (lambsquarters (CHEAL); [1]) | % visual injury, observed (Ob) (lambsquarters (CHEAL); compound 8 0 + CQC-m 8.75 g/ha) | % visual injury, observed (Ob) (lambsquarters (CHEAL); compound 8 0 + CQC-m 17.5 g/ha) | % visual injury, observed (Ob) (lambsquarters (CHEAL); compound 8 0 + CQC-m 35 g/ha) | % visual injury, observed (Ob) (lambsquarters (CHEAL); compound 8 0 + CQC-m 70 g/ha) | pest or weed control at 4.375 g/ha (lambsquarters (CHEAL); Chenopodium album, post-emergence, alone, 4.375 g/ha, read-out: % visual injury, Ob) | pest or weed control at 8.75 g/ha (lambsquarters (CHEAL); Chenopodium album, post-emergence, alone, 8.75 g/ha, read-out: % visual injury, Ob) | pest or weed control at 17.5 g/ha (lambsquarters (CHEAL); Chenopodium album, post-emergence, alone, 17.5 g/ha, read-out: % visual injury, Ob) | pest or weed control at 20 g/ha (lambsquarters (CHEAL); Chenopodium album, post-emergence, alone, 20 g/ha, read-out: % visual injury, Ob) | pest or weed control at 35 g/ha (lambsquarters (CHEAL); Chenopodium album, post-emergence, alone, 35 g/ha, read-out: % visual injury, Ob) | pest or weed control at 40 g/ha (lambsquarters (CHEAL); Chenopodium album, post-emergence, alone, 40 g/ha, read-out: % visual injury, Ob) | pest or weed control at 70 g/ha (lambsquarters (CHEAL); Chenopodium album, post-emergence, alone, 70 g/ha, read-out: % visual injury, Ob) | pest or weed control at 80 g/ha (lambsquarters (CHEAL); Chenopodium album, post-emergence, alone, 80 g/ha, read-out: % visual injury, Ob) | % visual injury, Ob (thistle (CIRAR); 4.375 g/ha, applied alone) | % visual injury, Ob (thistle (CIRAR); 8.75 g/ha, applied alone) | % visual injury, Ob (thistle (CIRAR); 17.5 g/ha, applied alone) | % visual injury, Ob (thistle (CIRAR); 35 g/ha, applied alone) | % visual injury, Ob (thistle (CIRAR); 70 g/ha, applied alone) | % visual injury, Ob (thistle (CIRAR); compound 0, CQC-m 4.375 g/ha) | % visual injury, Ob (thistle (CIRAR); compound 0, CQC-m 8.75 g/ha) | % visual injury, Ob (thistle (CIRAR); compound 0, CQC-m 17.5 g/ha) | % visual injury, Ob (thistle (CIRAR); compound 0, CQC-m 35 g/ha) | % visual injury, Ob (thistle (CIRAR); compound 0, CQC-m 70 g/ha) | pest or weed control at 4.375 g/ha (thistle (CIRAR); Cirsium arvense, post-emergence, alone, 4.375 g/ha, read-out: % visual injury, Ob) | pest or weed control at 8.75 g/ha (thistle (CIRAR); Cirsium arvense, post-emergence, alone, 8.75 g/ha, read-out: % visual injury, Ob) | pest or weed control at 17.5 g/ha (thistle (CIRAR); Cirsium arvense, post-emergence, alone, 17.5 g/ha, read-out: % visual injury, Ob) | pest or weed control at 35 g/ha (thistle (CIRAR); Cirsium arvense, post-emergence, alone, 35 g/ha, read-out: % visual injury, Ob) | pest or weed control at 70 g/ha (thistle (CIRAR); Cirsium arvense, post-emergence, alone, 70 g/ha, read-out: % visual injury, Ob) | % visual injury, Ob (wild chamomile (MATCH); compound 0, CQC-m 4.375 g/ha) | % visual injury, Ob (wild chamomile (MATCH); compound 0, CQC-m 8.75 g/ha) | % visual injury, Ob (wild chamomile (MATCH); compound 0, CQC-m 17.5 g/ha) | % visual injury, Ob (wild chamomile (MATCH); compound 0, CQC-m 35 g/ha) | % visual injury, Ob (wild chamomile (MATCH); compound 0, CQC-m 70 g/ha) | % visual injury, Ob (common poppy (PAPRH); 4.375 g/ha, applied alone) | % visual injury, Ob (common poppy (PAPRH); 8.75 g/ha, applied alone) | % visual injury, Ob (common poppy (PAPRH); 17.5 g/ha, applied alone) | % visual injury, Ob (common poppy (PAPRH); 35 g/ha, applied alone) | % visual injury, Ob (common poppy (PAPRH); 70 g/ha, applied alone) | % visual injury, Ob (common poppy (PAPRH); compound 0, CQC-m 4.375 g/ha) | % visual injury, Ob (common poppy (PAPRH); compound 0, CQC-m 8.75 g/ha) | % visual injury, Ob (common poppy (PAPRH); compound 0, CQC-m 17.5 g/ha) | % visual injury, Ob (common poppy (PAPRH); compound 0, CQC-m 35 g/ha) | % visual injury, Ob (common poppy (PAPRH); compound 0, CQC-m 70 g/ha) | % visual injury, Ob (common poppy (PAPRH); compound 0 g/ha, CQC-m 4.375 g/ha) | % visual injury, Ob (common poppy (PAPRH); compound 0 g/ha, CQC-m 8.75 g/ha) | % visual injury, Ob (common poppy (PAPRH); compound 0 g/ha, CQC-m 17.5 g/ha) | % visual injury, Ob (common poppy (PAPRH); compound 0 g/ha, CQC-m 35 g/ha) | % visual injury, Ob (common poppy (PAPRH); compound 0 g/ha, CQC-m 70 g/ha) | % visual injury, observed (Ob) (common poppy (PAPRH); [1]) | % visual injury, observed (Ob) (common poppy (PAPRH); compound 8 0 + CQC-m 8.75 g/ha) | % visual injury, observed (Ob) (common poppy (PAPRH); compound 8 0 + CQC-m 17.5 g/ha) | % visual injury, observed (Ob) (common poppy (PAPRH); compound 8 0 + CQC-m 35 g/ha) | % visual injury, observed (Ob) (common poppy (PAPRH); compound 8 0 + CQC-m 70 g/ha) | pest or weed control at 4.375 g/ha (common poppy (PAPRH); Papaver rhoeas, post-emergence, alone, 4.375 g/ha, read-out: % visual injury, Ob) | pest or weed control at 8.75 g/ha (common poppy (PAPRH); Papaver rhoeas, post-emergence, alone, 8.75 g/ha, read-out: % visual injury, Ob) | pest or weed control at 17.5 g/ha (common poppy (PAPRH); Papaver rhoeas, post-emergence, alone, 17.5 g/ha, read-out: % visual injury, Ob) | pest or weed control at 35 g/ha (common poppy (PAPRH); Papaver rhoeas, post-emergence, alone, 35 g/ha, read-out: % visual injury, Ob) | pest or weed control at 70 g/ha (common poppy (PAPRH); Papaver rhoeas, post-emergence, alone, 70 g/ha, read-out: % visual injury, Ob)
